Literature values, collected in patent US20250011247A1, “GYPSUM HARDENED PRODUCT” (KAO CORPORATION, priority 2022, published 2025).

Details: 1-octanol/water; measured value if any, otherwise C log P calculated by C LOG P v 4.01

log P: 1.31
Structure (SMILES): CCCCC=O [pentanal]
